Measured values published in patent US4605785A, “1,1-diphenylpropanol derivatives, process for their preparation and pharmaceutical compositions containing them” (Richter Gedeon Vegyeszeti Gyar RT, priority 1982, dated 1986).

Tests used:
hexabarbital oxidase = experiment: Hexabarbital sleeping time (hexabarbital oxidase activity in vivo); set-up: species or system Hann.-Wistar rats; settings: hexabarbital sodium 60 mg./kg. i.v., x ± S.E.; for Hexabarbital sleeping time in %-age of the control, 1 h: 1 h after single 40 mg./kg. oral dose; for Hexabarbital sleeping time in %-age of the control, 24 h: 24 h after single 40 mg./kg. oral dose
Experimental: The enzyme inducing activity was tested by the following methods: The change of hexabarbital oxidase activity was measured on Hann.-Wistar rats weighing 50-60 g. which were administered single 40 mg./kg. doses of the test compounds orally. One and 24 hours after treatment the animals were anaesthetized by a 60 mg./kg. i.v. dose of hexabarbital sodium, and the sleeping time, i.e. the time between the loss of righting reflex and full awakeness was measured (Noordhoex J.: Eur. J. Pharmacol., 3, 242, 1968). As a reference compound phenobarbital was used. The average of the groups and the standard error were determined. The results are given in Table 1, expressed in % of the control.

[1] = Relative weight of liver after treatment; assay type: in vivo, Female Hann.-Wistar rats; settings: 24 h after single 40 mg/kg. oral dose; control 4.3 ± 0.17 = 100 ± 3.9%
Experimental: (§1) To evaluate the enzyme inducing activity of the compounds of formula (I) the activity of the polysubstrate monooxygenase enzyme system of the liver, after treatment with placebo and the test compounds, respectively, was also tested. Female Hann.-Wistar rats weighing 50-60 g. each were administered a single 40 mg/kg. dose of the test compounds orally. 24 hours after treatment the animals were decapitated and their livers were eliminated. […] The cytochrome P-450 concentration was determined on the basis of the carbon monoxide differential spectrum of a reduced microsome suspension (Omura T. et al.: J. Biol. Chem. 239, 2370 (1964)). The quantity of cytochrome b-5 was determined from a NaDH differential spectrum (Raw J. et al.: J. Biol. Chem., 234, 1867 (1959)); the activity of NADPH: ferricytochrome C (P-450) reductase (E.C. 1.6.2.4) was measured by the method of Williams C. […] The activity of the aniline hydroxylase from the velocity of the p-amino-phenol formation was determined by the method of R. S. et al.: Toxicol. […] Pharmacol., 22, 50 (1972), while the aminopyrine-demethylase activity was measured by the quantity of the formaldehyde formed, using the method developed by Gourlay G. K. et al.: Biochem. Pharmacol., 27, 965 (1978). The protein content was determined using the method by Lowry O. H. et al.: J. Biochem., 193, 265 (1951). […]

[2] = Microsomal protein content of liver after treatment (Lowry); assay type: in vivo, Female Hann.-Wistar rats; settings: 24 h after single 40 mg/kg. oral dose; control 29.3 ± 1.01 = 100 ± 3.4%
Experimental: as §1

cytochrome b-5 = experiment: Quantity of cytochrome b-5 in liver after treatment; assay type: in vivo, Female Hann.-Wistar rats; settings: 24 h after single 40 mg/kg. oral dose; control 8.6 ± 0.43 = 100 ± 5.0%
Experimental: as §1

cytochrome P-450 = experiment: Cytochrome P-450 concentration in liver after treatment; assay type: in vivo, Female Hann.-Wistar rats; settings: 24 h after single 40 mg/kg. oral dose; control 12.8 ± 0.63 = 100 ± 4.9%
Experimental: as §1

[3] = system: NADPH: ferricytochrome C (P-450) reductase (E.C. 1.6.2.4); experiment: Activity of NADPH: ferricytochrome C (P-450) reductase in liver after treatment; assay type: in vivo, Female Hann.-Wistar rats; settings: 24 h after single 40 mg/kg. oral dose; control 4868 ± 296.2 = 100 ± 6.1%
Experimental: as §1

aniline hydroxylase = experiment: Aniline hydroxylase activity in liver after treatment; assay type: in vivo, Female Hann.-Wistar rats; settings: 24 h after single 40 mg/kg. oral dose; control 20.3 ± 0.88 = 100 ± 4.3%
Experimental: as §1

aminopyrine demethylase = experiment: Aminopyrine demethylase activity in liver after treatment; assay type: in vivo, Female Hann.-Wistar rats; settings: 24 h after single 40 mg/kg. oral dose; control 254.8 ± 7.47 = 100 ± 2.9%
Experimental: as §1

Hann.-Wistar rats = experiment: Acute toxicity, oral; assay type: in vivo; settings: 500 mg./kg. p.o. single dose; 14 days observation
Experimental: (§2) The acute toxicity of the compounds of formula (I) was determined on Hann.-Wistar rats selected from both sexes, weighing 160-180 g. each. The test compounds were administered in a single 500 mg./kg. oral dose. […] The results are set forth in the following Table 3, in which the percentage of the dead animals is indicated.

Acute toxicity, oral = assay type: in vivo, Hann.-Wistar rats; settings: rat, in vivo, po
Experimental: as §2

[4] = CNS activity (electroshock, metrazole, thiosemicarbazide, strichnine, nicotine spasm, rotating rod, physostigmine lethality, yohimbine potentiation, analgesia); settings: oral, already at 40 mg./kg.; in words
Experimental: The compounds of the formula (I) and phenobarbital were administered orally, in a dose of 40 mg./kg. and 80 mg./kg.

Compound | Hexabarbital sleeping time in %-age of the control, 1 h (hexabarbital oxidase) | Hexabarbital sleeping time in %-age of the control, 24 h (hexabarbital oxidase) | relative weight of liver (g./100 g. of body weight), % of the control [1] [%] | microsomal protein (mg./g. of liver), % of the control [2] [%] | cytochrome b-5 (nmoles/g. of liver), % of the control (cytochrome b-5) [%] | cytochrome P-450 (nmoles/g. of liver), % of the control (cytochrome P-450) [%] | C(P-450) reductase (nmoles/g. of liver/min.), % of the control [3] [%] | aniline hydroxylase (nmoles/g. of liver/min.), % of the control (aniline hydroxylase) [%] | aminopyrine demethylase (nmoles/g. of liver/min.), % of the control (aminopyrine demethylase) [%] | Dead animals (%) (Hann.-Wistar rats) | mortality at 336 h (Acute toxicity, oral; 500 mg./kg. p.o. single dose, 14 days observation, read-out: Dead animals (%)) [%] | LD50 (Acute toxicity, oral; footnote to Table 3) [mg/kg] | CNS activity (anticonvulsive, muscle coordinating, sedative) [4]
CCC(O)(c1ccc(F)cc1)c1ccccc1OCc1ccccc1 (stereo not shown) [A, 1-(4-fluorophenyl)-1-(2-benzyloxyphenyl)-propane-1-ol] | 95 ± 20.2 % of the control | 46 ± 3.5 % of the control | 109 ± 2.5 | 109 ± 3.8 | 124 ± 3.8 | 170 ± 8.8 | 155 ± 6.9 | 168 ± 8.9 | 150 ± 11.1 | .phi. |  |  | 
CCC(O)(c1cc(C)ccc1C)c1ccccc1OCc1ccccc1 (stereo not shown) [B, 1-(2,5-dimethylphenyl)-1-(2-benzyloxyphenyl)-propane-1-ol] | 119 ± 7.7 % of the control | 58 ± 8.0 % of the control |  |  |  |  |  |  |  | .phi. |  |  | 
CCN(CC)C(=O)COc1ccc(C(O)(CC)c2cccc(C(F)(F)F)c2)cc1 (stereo not shown) [C, 1-(3-trifluoromethylphenyl)-1-[4-(diethylcarbamoylmethoxy)-phenyl]-propane-1-ol] | 170 ± 10.0 % of the control | 44 ± 2.0 % of the control |  |  |  |  |  |  |  | .phi. |  |  | 
CCN(CC)C(=O)COc1ccccc1C(O)(CC)c1cccc(Cl)c1 (stereo not shown) [Compound D, 1-(3-chlorophenyl)-1-[2-(diethylcarbamoylmethoxy)-phenyl]-propane-1-ol] | 139 ± 14.4 % of the control | 50 ± 3.0 % of the control | 107 ± 4.4 | 120 ± 6.7 | 122 ± 6.3 | 199 ± 17.7 | 144 ± 11.9 | 189 ± 12.3 | 129 ± 6.0 | .phi. |  |  | 
CCOC(=O)COc1ccccc1C(O)(CC)c1cccc(Cl)c1 (stereo not shown) [E, 1-(3-chlorophenyl)-1-[2-(ethoxycarbonylmethoxy)-phenyl]propane-1-ol] | 117 ± 1.1 % of the control | 58 ± 2.4 % of the control |  |  |  |  |  |  |  | .phi. |  |  | 
CCC1(c2ccccc2)C(=O)NC(=O)NC1=O [phenobarbital, reference compound] | 250 ± 15.8 % of the control | 60 ± 7.3 % of the control |  |  |  |  |  |  |  |  | 100 | 254 | significant anticonvulsive muscle coordinating and sedative effect
